In PubChem BioAssay (NCI):
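In this assay, cells in 96-well plates receive the compound at five concentrations for 48 hours. Endpoints are linearly interpolated between the surrounding concentrations. Definition used: TGI = concentration required for complete inhibition of growth.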

What was measured:
Assay in all cases: growth of human tumour cells (NCI), 48 h
786-0 renal = test system: 786-0 renal
A549 NSCLC = test system: A549 NSCLC
ACHN renal = test system: ACHN renal
BT-549 breast = test system: BT-549 breast
CAKI-1 renal = test system: CAKI-1 renal
CCRF-CEM leukemia = test system: CCRF-CEM leukemia
COLO 205 colon = test system: COLO 205 colon
DU-145 prostate = test system: DU-145 prostate
EKVX NSCLC = test system: EKVX NSCLC
HCC-2998 colon = test system: HCC-2998 colon
HCT-116 colon = test system: HCT-116 colon
HCT-15 colon = test system: HCT-15 colon
HOP-62 NSCLC = test system: HOP-62 NSCLC
HOP-92 NSCLC = test system: HOP-92 NSCLC
HS 578T breast = test system: HS 578T breast
HT29 colon = test system: HT29 colon
IGROV1 ovarian = test system: IGROV1 ovarian
K-562 leukemia = test system: K-562 leukemia
KM12 colon = test system: KM12 colon
LOX IMVI melanoma = test system: LOX IMVI melanoma
M14 melanoma = test system: M14 melanoma
MALME-3M melanoma = test system: MALME-3M melanoma
MCF7 breast = test system: MCF7 breast
MDA-MB-231 breast = test system: MDA-MB-231 breast
MDA-MB-435 = test system: MDA-MB-435
MDA-N = test system: MDA-N
MOLT-4 leukemia = test system: MOLT-4 leukemia
NCI-H226 lung = test system: NCI-H226 lung
NCI-H23 lung = test system: NCI-H23 lung
NCI-H460 lung = test system: NCI-H460 lung
NCI-H522 lung = test system: NCI-H522 lung
NCI/ADR-RES ovarian = test system: NCI/ADR-RES ovarian
OVCAR-3 ovarian = test system: OVCAR-3 ovarian
OVCAR-4 ovarian = test system: OVCAR-4 ovarian
OVCAR-5 ovarian = test system: OVCAR-5 ovarian
OVCAR-8 ovarian = test system: OVCAR-8 ovarian
PC-3 prostate = test system: PC-3 prostate
RXF 393 renal = test system: RXF 393 renal
SF-268 CNS = test system: SF-268 CNS
SF-295 CNS = test system: SF-295 CNS
SF-539 CNS = test system: SF-539 CNS
SK-MEL-28 melanoma = test system: SK-MEL-28 melanoma
SK-MEL-5 melanoma = test system: SK-MEL-5 melanoma
SK-OV-3 ovarian = test system: SK-OV-3 ovarian
SN12C renal = test system: SN12C renal
SNB-19 CNS = test system: SNB-19 CNS
SNB-75 CNS = test system: SNB-75 CNS
SW-620 colon = test system: SW-620 colon
T-47D breast = test system: T-47D breast
TK-10 renal = test system: TK-10 renal
U251 CNS = test system: U251 CNS
UACC-257 melanoma = test system: UACC-257 melanoma
UACC-62 melanoma = test system: UACC-62 melanoma
UO-31 renal = test system: UO-31 renal

For `COc1ccc2c(c1)CCCN1Cc3cc(OC)c(OC)cc3CC21` (centres undefined), the TGI (786-0 renal) was greater than 100 µM, the TGI (A549 NSCLC) was greater than 100 µM and the TGI (ACHN renal) was greater than 100 µM. It also gave a TGI (BT-549 breast) greater than 100 µM, a TGI (CAKI-1 renal) greater than 100 µM and a TGI (CCRF-CEM leukemia) greater than 100 µM. The TGI (COLO 205 colon) was greater than 100 µM, the TGI (DU-145 prostate) was greater than 100 µM and the TGI (EKVX NSCLC) was greater than 100 µM. It also gave a TGI (HCC-2998 colon) greater than 100 µM, a TGI (HCT-116 colon) greater than 100 µM and a TGI (HCT-15 colon) greater than 100 µM. It also gave a TGI (HOP-62 NSCLC) greater than 100 µM, a TGI (HOP-92 NSCLC) greater than 100 µM and a TGI (HS 578T breast) greater than 100 µM. It also gave a TGI (HT29 colon) greater than 100 µM, a TGI (IGROV1 ovarian) greater than 100 µM and a TGI (K-562 leukemia) greater than 100 µM. It also gave a TGI (KM12 colon) greater than 100 µM, a TGI (LOX IMVI melanoma) greater than 100 µM and a TGI (M14 melanoma) of 44.1 µM. The TGI (MALME-3M melanoma) was greater than 100 µM, the TGI (MCF7 breast) was greater than 100 µM and the TGI (MDA-MB-231 breast) was greater than 100 µM. For the same compound, the TGI (MDA-MB-435) was greater than 100 µM, the TGI (MDA-N) was greater than 100 µM and the TGI (MOLT-4 leukemia) was greater than 100 µM. It also gave a TGI (NCI-H226 lung) greater than 100 µM, a TGI (NCI-H23 lung) greater than 100 µM and a TGI (NCI-H460 lung) greater than 100 µM. For the same compound, the TGI (NCI-H522 lung) was greater than 100 µM, the TGI (NCI/ADR-RES ovarian) was greater than 100 µM and the TGI (OVCAR-3 ovarian) was greater than 100 µM. The TGI (OVCAR-4 ovarian) was greater than 100 µM, the TGI (OVCAR-5 ovarian) was greater than 100 µM and the TGI (OVCAR-8 ovarian) was greater than 100 µM. It also gave a TGI (PC-3 prostate) greater than 100 µM, a TGI (RXF 393 renal) greater than 100 µM and a TGI (SF-268 CNS) greater than 100 µM. For the same compound, the TGI (SF-295 CNS) was greater than 100 µM, the TGI (SF-539 CNS) was greater than 100 µM and the TGI (SK-MEL-28 melanoma) was greater than 100 µM. The TGI (SK-MEL-5 melanoma) was greater than 100 µM, the TGI (SK-OV-3 ovarian) was greater than 100 µM and the TGI (SN12C renal) was greater than 100 µM. It also gave a TGI (SNB-19 CNS) greater than 100 µM, a TGI (SNB-75 CNS) greater than 100 µM and a TGI (SW-620 colon) greater than 100 µM. The TGI (T-47D breast) was greater than 100 µM, the TGI (TK-10 renal) was greater than 100 µM and the TGI (U251 CNS) was greater than 100 µM. For the same compound, the TGI (UACC-257 melanoma) was greater than 100 µM, the TGI (UACC-62 melanoma) was greater than 100 µM and the TGI (UO-31 renal) was greater than 100 µM.
